Test results: US20230194505A1, “DETERMINING DRUG EFFECTS USING COMBINATION OF MEASUREMENTS” (Organos, Inc., priority 2020, published 2023)
Where two headings read alike, the source gives them in different places.

Tests used:
[1] = test system: dog cardiomyocytes; conditions: 50 nM, paced at 1 Hz, data from Jost et al. 2013; cited from earlier work
[2] = test system: human cardiomyocytes; conditions: cited from earlier work
[3] = test system: zebrafish cardiomyocytes; conditions: 1 μM, data from Nemtsas et al. 2010; cited from earlier work
[4] = test system: hiPSC-CMs; test: Conduction velocity computed from measurements of the extracellular potential in a collection of hiPSC-CMs; type: cell-based, human; conditions: doses 1-10 μM
Protocol: From the U data 430, we include the value at each time point and each electrode (see (14)), and the conduction velocity is computed using the time points in which U crosses 0 mV after the peak in different electrodes (see (15) and FIG. 1). Given that U is measured at each electrode, another metric can be the time tcv for the U data 430 to go back to zero. Another metric uses the measurements at each of the time points (shown as separate dots 432; a sum of the square of the differences (or absolute value) between the model output and measured values can be summed.
where cv denotes the conduction velocity (in cm/s) computed from U recorded in the electrodes. More specifically, the conduction velocity is computed as the distance between the center of the two electrodes marked as a and b in FIG. 1 divided by the time between U crosses 0 mV after the peak in these two electrodes (see FIG. 4). The two electrodes used could be any two electrodes in the simulation.
One of the advantages of including measurements of the extracellular potential in addition to optical measurements of V and Ca in the inversion procedure is that the extracellular measurements can be used to estimate the conduction velocity of the cell collection. This information could be useful for determining drug effects on the INa current (see FIG. 6). […]

[5] = test system: rabbit ventricular myocyte; conditions: data from Baczkó et al. 2016, cited from earlier work
[6] = 50 nM, paced at 1 Hz, data from Jost et al. 2013
[7] = 1 μM, data from Bussek et al. (B)
[8] = 1 μM, data from Jost et al. 2005 (J)
[9] = 30 μM, data from Baczkó et al. 2016 (B)
[10] = 30 μM, data from Orvos et al. 2019 (O)

**Q.** Which “APD50, Dog, drug measured (change vs control)” value [1] does the source give for `CN(CCOc1ccc(NS(C)(=O)=O)cc1)CCc1ccc(NS(C)(=O)=O)cc1` [dofetilide] here?
**A.** The value was “+17.5%”.

**Q.** What about the “APD50, Human, drug measured (change vs control)” value [2, 6] of the same compound?
**A.** The value was “+33.3%”.

**Q.** And the “APD90, Human, drug measured (change vs control)” value [2, 6]?
**A.** Its value is “+44.3%”.

**Q.** For `Cc1cccc(CCN2CCC(C(=O)c3ccc(NS(C)(=O)=O)cc3)CC2)n1` [E-4031], which “APD50, Zebrafish drug measured (change vs control)” value [3] is on record?
**A.** Its value is “+38.7%”.

**Q.** And the “APD90, Zebrafish drug measured (change vs control)” value [3]?
**A.** Its value is “+24.1%”.

**Q.** What about the “APD50, Human, drug measured (B) (change vs control)” value [2, 7] of the same compound?
**A.** The value was “+27.7%”.

**Q.** And the “APD90, Human, drug measured (B) (change vs control)” value [2, 7]?
**A.** Its value is “+31.2%”.

**Q.** And the “APD50, Human drug measured (J) (change vs control)” value [2, 8]?
**A.** Its value is “+54.2%”.

**Q.** What about the “APD90, Human drug measured (J) (change vs control)” value [2, 8] of the same compound?
**A.** Its value is “+65.1%”.

**Q.** For `O=C(NCC1CCCCN1)c1cc(OCC(F)(F)F)ccc1OCC(F)(F)F` (stereo not drawn) [Flecainide], which “Effect of increasing drug dose on conduction velocity” value [4] is on record?
**A.** Its value is “the conduction velocity is decreased”.

**Q.** Which results are given for `CC(C)NCC(O)c1ccc(NS(C)(=O)=O)cc1` (stereo not drawn) [sotalol]?
**A.** APD50, Rabbit, drug measured (change vs control) ([5]; 10 μM): +21.2%; APD90, Rabbit, drug measured (change vs control) ([5]; 10 μM): +19.6%; APD50, Rabbit, drug measured (change vs control) ([5]; 52 μM): +54.3%; APD90, Rabbit, drug measured (change vs control) ([5]; 52 μM): +54.1%; APD50, Human, drug measured (B) (change vs control) [2, 9]: +32.3%; APD90, Human, drug measured (B) (change vs control) [2, 9]: +37.5%; APD50, Human, drug measured (O) (change vs control) [2, 10]: +20.6%; APD90, Human, drug measured (O) (change vs control) [2, 10]: +28.2%
